Data from patent US20070212707A1, “CELL CYCLE MARKERS” (GE HEALTHCARE UK LIMITED, priority 2004, published 2007).
Entries after “also recorded” stand apart in the source; their conditions may differ.

How the values were obtained:
[1] = tested on: CRM1-mediated nuclear export; assay: Nuclear export block: subcellular localization of GFP-HDHB and FLAG-HDHB with or without LMB; assay type: cell-based, human; details: asynchronous, G1 and S phase U2OS cells; 10 ng/ml LMB with 10 μM cycloheximide, 3 h
Protocol: In experiments to block nuclear protein export, cells were cultured for 3 h in DMEM containing 10 ng/ml of leptomycin B (LMB) (gift from Dr. M. Yoshida) and 10 μM cycloheximide (Calbiochem, San Diego, Calif.) to prevent new protein synthesis. Cells plated on glass coverslips were microinjected as described (Herbig et al., 1999) except that plasmid DNA rather than protein was injected.
To assess whether the putative NES in HDHB was functional, we mutated Val/Leu and Leu/Leu of the NES motif to alanine to create NES mutants 1 and 2 (FIG. 6A). GFP-HDHB and GFP-βGal-PSLD harboring these NES mutations were transiently expressed in either asynchronous or synchronized U2OS cells.

[2] = tested on: U2OS cells transiently expressing GFP-HDHB; assay: DNA damage response assay: GFP-HDHB nuclear focus formation; assay type: cell-based, human; details: 20 μM etoposide, 10 μM camptothecin or 1 μM mitomycin C, 20 h, DMSO control, Triton X-100 extraction
Protocol: U2OS cells (80-90% confluent) were transfected with pGFP-HDHB according to the manufacturer's protocol (Lipofectamine 2000, Invitrogen). […] After 20 h, cells were extracted with Triton X-100 buffer and then fixed for immunofluorescence as described above. Distinctive GFP-HDHB nuclear foci were counted in more than 100 cells in each independent assay.
Moreover, DNA damage induces nuclear foci that are thought to contain damage-sensing and -processing proteins (Nelms et al., Science, (1998) 280, 590-592; van den Bosch et al. EMBO Rep., (2003), 4, 844-849).

SMILES	subcellular localization of GFP-HDHB and FLAG-HDHB fusion proteins in the presence of LMB [1]	number of large GFP-HDHB nuclear foci per cell compared to the control [2]
CCC(=C/[C@H](C)C/C=C/C(C)=C/[C@@H](C)C(=O)[C@@H](C)[C@H](O)[C@@H](C)C/C(C)=C/C(=O)O)/C=C/[C@@H]1OC(=O)C=C[C@@H]1C [LMB, leptomycin B]	both fusion proteins accumulated in the nucleus independently of the cell cycle	
CO[C@@]12[C@H](COC(N)=O)C3=C(C(=O)C(C)=C(N)C3=O)N1C[C@@H]1N[C@@H]12 [Mitomycin C, mitomycin C]		little effect
CC[C@@]1(O)C(=O)OCc2c1cc1n(c2=O)Cc2cc3ccccc3nc2-1 [camptothecin]		more than doubled; also recorded: induced many more HDHB nuclear foci
